Biological target: T1, human recombinant GPR65 (Homo sapiens, UniProt Q8IYL9)
T1 construct: host or cells: 1321N1 human astrocytoma cells (1321N1-hrGPR65)
Experiment: Human GPR65 cAMP HTRF antagonist assay
Format: cell-based
Details: 1321N1-hrGPR65 cells, assay pH 7.2, cAMP HTRF; read-out: hGPR65 IC50
Procedure, shortened: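 1321N1 cells stably expressing human GPR65 were preincubated 30 min at room temperature with compound in KRH pH 7.6 containing 1 mM IBMX and 200 μM EDTA. They were then acid-stimulated to pH 7.2 for 30 min, with pH 7.9 as control. cAMP was read by HTRF (665/620 ratio), and IC50 came from normalised 4-parameter logistic fits.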

T1 sequence (Q8IYL9 whole entry): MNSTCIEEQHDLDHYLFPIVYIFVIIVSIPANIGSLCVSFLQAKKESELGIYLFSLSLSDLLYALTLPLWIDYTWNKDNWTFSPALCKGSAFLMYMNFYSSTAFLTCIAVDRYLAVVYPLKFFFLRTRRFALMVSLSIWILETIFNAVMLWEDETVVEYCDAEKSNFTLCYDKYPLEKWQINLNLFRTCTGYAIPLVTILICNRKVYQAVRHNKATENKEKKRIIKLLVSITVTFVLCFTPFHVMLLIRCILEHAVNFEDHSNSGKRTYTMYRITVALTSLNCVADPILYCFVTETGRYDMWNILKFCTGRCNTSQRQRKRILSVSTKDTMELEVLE

Row | SMILES | IC50 [nM]
1 | O=C(Nc1cc(Cl)c(-c2ccc(OC(C(F)F)C(F)F)nc2)cc1F)N1[C@H]2CC[C@@H]1c1c[nH]c(=O)cc1C2 [Compound 13, (6S,9R)-N-(5-chloro-2-fluoro-4-(6-((1,1,3,3-tetrafluoropropan-2-yl)oxy)pyridin-3-yl)phenyl)-3-oxo-3,5,6,7,8,9-hexahydro-2H-6,9-epiminocyclohepta[c]pyridine-10-carboxamide] | < 500
2 | O=C(Nc1cc(Cl)c(-c2ccc(NCC(F)(F)F)nc2)cc1F)N1[C@H]2CC[C@@H]1c1n[nH]c(=O)cc1C2 [Compound 2, (6S,9R)-N-(5-chloro-2-fluoro-4-(6-((2,2,2-trifluoroethyl)amino)pyridin-3-yl)phenyl)-3-oxo-3,5,6,7,8,9-hexahydro-2H-6,9-epiminocyclohepta[c]pyridazine-10-carboxamide] | < 500
3 | O=C(Nc1cc(Cl)c(-c2ccc(OCC3CN(CC(F)(F)F)C3)nc2)cc1F)N1[C@H]2CC[C@@H]1c1c[nH]c(=O)cc1C2 [Compound 32, (6S,9R)-N-(5-chloro-2-fluoro-4-(6-((1-(2,2,2-trifluoroethyl)azetidin-3-yl)methoxy)pyridin-3-yl)phenyl)-3-oxo-3,5,6,7,8,9-hexahydro-2H-6,9-epiminocyclohepta[c]pyridine-10-carboxamide] | < 500
4 | O=C(Nc1cc(Cl)c(-c2ccc(OCC(F)(F)F)nc2)cc1F)N1[C@H]2CC[C@@H]1C(F)(F)c1c2ccnc1F [Compound 72, (5S,8R)-N-(5-Chloro-2-fluoro-4-(6-(2,2,2-trifluoroethoxy)pyridin-3-yl)phenyl)-1,9,9-trifluoro-6,7,8,9-tetrahydro-5H-5,8-epiminocyclohepta[c]pyridine-10-carboxamide] | < 500
5 | COCCO[C@H]1C[C@@H](Oc2ccc(-c3cc(F)c(NC(=O)N4[C@H]5CC[C@@H]4c4c[nH]c(=O)cc4C5)cc3Cl)cn2)C1 [Compound 23, (6S,9R)-N-(5-chloro-2-fluoro-4-(6-((1s,3S)-3-(2-methoxyethoxy)cyclobutoxy)pyridin-3-yl)phenyl)-3-oxo-3,5,6,7,8,9-hexahydro-2H-6,9-epiminocyclohepta[c]pyridine-10-carboxamide] | < 500
6 | O=C(Nc1cc(Cl)c(COc2cccc(OC3CCCC3)n2)cc1F)N1[C@H]2CC[C@@H]1c1n[nH]c(=O)cc1C2 [Compound 59, (6S,9R)-N-(5-chloro-4-(((6-(cyclopentyloxy)pyridin-2-yl)oxy)methyl)-2-fluorophenyl)-3-oxo-3,5,6,7,8,9-hexahydro-2H-6,9-epiminocyclohepta[c]pyridazine-10-carboxamide] | < 500
7 | O=C(Nc1cc(Cl)c(-c2ccc(OCC34CNC(C3)C4)nc2)cc1F)N1[C@H]2CC[C@@H]1c1c[nH]c(=O)cc1C2 [Compound 60, (6S,9R)-N-(4-(6-((2-azabicyclo[2.1.1]hexan-4-yl)methoxy)pyridin-3-yl)-5-chloro-2-fluorophenyl)-3-oxo-3,5,6,7,8,9-hexahydro-2H-6,9-epiminocyclohepta[c]pyridine-10-carboxamide] | 500 to 5000
8 | O=C(Nc1cc(Cl)c(-c2ccc3nonc3c2)cn1)N1[C@H]2CC[C@@H]1C(F)(F)c1c2ccnc1F [Compound 73, (5S,8R)-N-(5-(Benzo[c][1,2,5]oxadiazol-5-yl)-4-chloropyridin-2-yl)-1,9,9-trifluoro-6,7,8,9-tetrahydro-5H-5,8-epiminocyclohepta[c]pyridine-10-carboxamide] | 500 to 5000
9 | O=C(Nc1cc(Cl)c(-c2ccc(OC3CCS(=O)(=O)CC3)nc2)cc1F)N1[C@H]2CC[C@@H]1c1n[nH]c(=O)cc1C2 [Compound 87, (6S,9R)-N-(5-Chloro-4-(6-((1,1-dioxidotetrahydro-2H-thiopyran-4-yl)oxy)pyridine-3-yl)-2-fluorophenyl)-3-oxo-3,5,6,7,8,9-hexahydro-2H-6,9-epiminocyclohepta[c]pyridazine-10-carboxamide] | < 500
10 | O=C(Nc1cc(Cl)c(-c2ccc3nonc3c2)cn1)N1[C@@H]2CC[C@H]1[C@@H](F)c1c2ccnc1F [Compound 76, (5R,8S,9S)-N-(5-(Benzo[c][1,2,5]oxadiazol-5-yl)-4-chloropyridin-2-yl)-1,9-difluoro-6,7,8,9-tetrahydro-5H-5,8-epiminocyclohepta[c]pyridine-10-carboxamide] | < 500
11 | CN(CC(F)(F)F)c1ccnc(-c2cc(F)c(NC(=O)N3[C@H]4CC[C@@H]3c3c[nH]c(=O)cc3C4)cc2Cl)c1 [Compound 39, (6S,9R)-N-(5-chloro-2-fluoro-4-(4-(methyl(2,2,2-trifluoroethyl)amino)pyridin-2-yl)phenyl)-3-oxo-3,5,6,7,8,9-hexahydro-2H-6,9-epiminocyclohepta[c]pyridine-10-carboxamide] | < 500
12 | Cn1ccc2cc(-c3cc(F)c(NC(=O)N4[C@H]5CC[C@@H]4c4c[nH]c(=O)cc4C5)cc3Cl)ccc21 [Compound 26, (6S,9R)-N-(5-chloro-2-fluoro-4-(1-methyl-1H-indol-5-yl)phenyl)-3-oxo-3,5,6,7,8,9-hexahydro-2H-6,9-epiminocyclohepta[c]pyridine-10-carboxamide] | < 500
13 | O=C(Nc1cc(Cl)c(-c2ccc(OCC3CCC3)nc2)cc1F)N1[C@H]2CC[C@@H]1c1c[nH]c(=O)cc1C2 [Compound 28, (6S,9R)-N-(5-chloro-4-(6-(cyclobutylmethoxy)pyridin-3-yl)-2-fluorophenyl)-3-oxo-3,5,6,7,8,9-hexahydro-2H-6,9-epiminocyclohepta[c]pyridine-10-carboxamide] | < 500
14 | O=C(Nc1cc(Cl)c(-c2ccc(OC[C@@H]3CCOC3)nc2)cc1F)N1[C@H]2CC[C@@H]1c1c[nH]c(=O)cc1C2 (single isomer, unassigned) [Compound 47] | < 500
15 | O=C(Nc1cc(Cl)c(NCc2ccc(OCC(F)(F)F)cn2)cc1F)N1[C@H]2CC[C@@H]1c1n[nH]c(=O)cc1C2 [Compound 65, (6S,9R)-N-(5-chloro-2-fluoro-4-(((5-(2,2,2-trifluoroethoxy)pyridin-2-yl)methyl)amino)phenyl)-3-oxo-3,5,6,7,8,9-hexahydro-2H-6,9-epiminocyclohepta[c]pyridazine-10-carboxamide] | 500 to 5000
16 | O=C(Nc1cc(Cl)c(C(F)(F)F)cn1)N1C2CCC1C(F)(F)c1c2ccnc1F (racemic) [Compound 34, (±)-N-(4-chloro-5-(trifluoromethyl)pyridin-2-yl)-1,9,9-trifluoro-6,7,8,9-tetrahydro-5H-5,8-epiminocyclohepta[c]pyridine-10-carboxamide] | < 500
17 | COCCOCCO[C@H]1C[C@H](Oc2ccc(-c3cc(F)c(NC(=O)N4[C@H]5CC[C@@H]4c4c[nH]c(=O)cc4C5)cc3Cl)cn2)C1 [Compound 22, (6S,9R)-N-(5-chloro-2-fluoro-4-(6-((1r,3R)-3-(2-(2-methoxyethoxy)ethoxy)cyclobutoxy)pyridin-3-yl)phenyl)-3-oxo-3,5,6,7,8,9-hexahydro-2H-6,9-epiminocyclohepta[c]pyridine-10-carboxamide] | < 500
18 | CN(CC(F)(F)F)c1ccc(-c2cc(F)c(NC(=O)N3[C@H]4CC[C@@H]3c3c[nH]c(=O)cc3C4)cc2Cl)cn1 [Compound 8, (6S,9R)-N-(5-chloro-2-fluoro-4-(6-(methyl(2,2,2-trifluoroethyl)amino)pyridin-3-yl)phenyl)-3-oxo-3,5,6,7,8,9-hexahydro-2H-6,9-epiminocyclohepta[c]pyridine-10-carboxamide] | < 500
19 | O=C(Nc1cc(Cl)c(-c2ccc(OC[C@H]3CCOC3)nc2)cc1F)N1[C@H]2CC[C@@H]1c1n[nH]c(=O)cc1C2 [Compound 80, (6S,9R)-N-(5-Chloro-2-fluoro-4-(6-(((S)-tetrahydrofuran-3-yl)methoxy)pyridin-3-yl)phenyl)-3-oxo-3,5,6,7,8,9-hexahydro-2H-6,9-epiminocyclohepta[c]pyridazine-10-carboxamide] | < 500
20 | Cc1cc(NC(=O)N2[C@H]3CC[C@@H]2c2c[nH]c(=O)cc2C3)c(F)cc1-c1ccc(OCC(F)(F)F)nc1 [Compound 18, (6S,9R)-N-(2-fluoro-5-methyl-4-(6-(2,2,2-trifluoroethoxy)pyridin-3-yl)phenyl)-3-oxo-3,5,6,7,8,9-hexahydro-2H-6,9-epiminocyclohepta[c]pyridine-10-carboxamide] | < 500
21 | O=C(Nc1cc(Cl)c(Cl)cc1OCC1CC1(F)F)N1[C@H]2CC[C@@H]1c1n[nH]c(=O)cc1C2 (stereo partly drawn) [Compound 88, (6S,9R)-N-(4,5-Dichloro-2-((2,2-difluorocyclopropyl)methoxy)phenyl)-3-oxo-3,5,6,7,8,9-hexahydro-2H-6,9-epiminocyclohepta[c]pyridazine-10-carboxamide] | > 5000
22 | O=C(Nc1cc(Cl)c(Cl)cn1)N1[C@@H]2CC[C@H]1[C@@H](F)c1c2ccnc1F [Compound 42, (5R,8S,9S)-N-(4,5-dichloropyridin-2-yl)-1,9-difluoro-6,7,8,9-tetrahydro-5H-5,8-epiminocyclohepta[c]pyridine-10-carboxamide] | < 500
23 | CC(C)(C)OC(=O)N1CC(COc2ccc(-c3cc(F)c(NC(=O)N4[C@H]5CC[C@@H]4c4c[nH]c(=O)cc4C5)cc3Cl)cn2)C1 [Compound 29, tert-Butyl 3-(((5-(2-chloro-5-fluoro-4-((6S,9R)-3-oxo-3,5,6,7,8,9-hexahydro-2H-6,9-epiminocyclohepta[c]pyridine-10-carboxamido)phenyl)pyridin-2-yl)oxy)methyl)azetidine-1-carboxylate] | < 500
24 | O=C(Nc1cc(Cl)c(-c2ccc(OC[C@H]3CCOC3)nc2)cc1F)N1[C@H]2CC[C@@H]1c1c[nH]c(=O)cc1C2 (single isomer, unassigned) [Compound 48] | < 500
25 | CN1CC2(COc3ccc(-c4cc(F)c(NC(=O)N5[C@H]6CC[C@@H]5c5c[nH]c(=O)cc5C6)cc4Cl)cn3)CC1C2 [Compound 61, (6S,9R)-N-(5-Chloro-2-fluoro-4-(6-((2-methyl-2-azabicyclo[2.1.1]hexan-4-yl)methoxy)pyridin-3-yl)phenyl)-3-oxo-3,5,6,7,8,9-hexahydro-2H-6,9-epiminocyclohepta[c]pyridine-10-carboxamide] | 500 to 5000
